Assay results published in patent publication US20230382858A1 (Beckley Psytech Limited, priority 2020, published 2023).

Columns and labels:
male Sprague-Dawley rats = assay: Functional Observational Battery (FOB), effects on CNS function (ITR study 15951); assay type: in vivo; details: rat
Description: The test and control/vehicle items were administered by single dose intranasal administration to both nostrils, as shown in Table 1.
Parameters monitored included mortality and clinical signs. General behavioral changes were assessed using FOB at 6 timepoints: before dosing, and at 15 minutes, 1, 2, 4, and 24 hours postdosing. On each occasion, the FOB was performed at 4 stages: when the animals were in their home cage, while handling the animals, when the animals were freely moving in an open-field, and when they received diverse stimuli for reactivity evaluation. The body temperature and neuromuscular strength were also measured on each of the occasions detailed above.

dogs = assay: Maximum tolerated dose followed by 7-day repeat-dose toxicology in dogs (Study 62958); assay type: in vivo; details: dog
Description: In support of these objectives, the study consisted of 2 individual phases.
The test item was administered once by intranasal instillation to one male and female dog for up to 5 dose levels until the highest tolerable dose (MTD) was determined as described in Table 5.
During Phase 2, assessments of mortality, clinical signs, body weights and food consumption were performed. […] Following the last dosing, all animals were euthanized and subjected to a necropsy examination on Day 8. The necropsy consisted of an external examination; including reference to all clinically-recorded lesions, as well as a detailed internal examination. Study plan specific tissues/organs were collected and preserved following necropsy but were not further examined microscopically.

[1] = Toxicokinetics in Study 62958 (plasma 5MeODMT, LC/MS/MS); assay type: in vivo; details: dog, daily intranasal instillation, 7-day treatment period
Sprague Dawley rats = assay: 14-day repeat-dose intranasal toxicity study with 14-day recovery in rats (Study 700041); assay type: in vivo, rat; details: for clinical signs: male and female; for microscopic changes in nasal cavities: male and/or female
Description: (§1) The animals were monitored for mortality, clinical signs, respiratory measurements, body weights, food consumption, and body temperature. Ophthalmoscopic examinations and respiratory function tests were performed on all animals at scheduled timepoints. Clinical pathology assessments (hematology, coagulation, clinical chemistry, and urinalysis) were evaluated at termination. […] Following dosing, the Main animals were euthanized and subjected to a complete necropsy examination on Day 15. […] TK animals were euthanized after the last blood collection and discarded without further examination. At terminal euthanasia, selected tissues/organs were weighed, and microscopic evaluations of a standard set of tissues including the nasal turbinates (4 sections) and brain (7 sections) were performed for all Main and Recovery study animals.
(§2) Following dosing, animals in the Main group were euthanized and subjected to a necropsy examination on Day 15.
Toxicity was based on the following parameters monitored: mortality/morbidity, clinical observations, body weights/gains, food consumption, ophthalmoscopy, clinical pathology (hematology, coagulation, chemistry, and urinalysis), necropsy observations, selected organ weights, and microscopic examination of a complete set of standard tissues including 4 cross levels of the nasal cavity and 7 sections of the brain.

[2] = Toxicokinetics in Study 700041; assay type: in vivo; details: rat, intranasal 20 mg/kg/day, Day 14, Male
Description: as §1, §2

Beagle dogs = assay: 14-day repeat-dose intranasal toxicity study with 14-day recovery in dogs (Study 62959); assay type: in vivo; details: dog; for animals with increased triglyceride level: vs control
Description: (§3) Assessments of mortality, clinical signs, olfactory reflex, body weights, food consumption, ophthalmology, and electrocardiograms were performed. In addition, clinical pathology assessments (hematology, coagulation, clinical chemistry and urinalysis) were evaluated once pretreatment and at termination. Blood samples were collected from the jugular vein of all animals on Days 1 and 14, at up to 8 time points relative to treatment, for analysis of test item concentration in plasma and the subsequent calculation of toxicokinetic parameters. Following dosing, the Main animals were euthanized and subjected to a complete necropsy examination on Day 15. […] All Main and Recovery study animals underwent complete necropsy examinations, selected tissues/organs were retained, and microscopic evaluations of a standard set of tissues were performed.

[3] = Toxicokinetics in Study 62959; assay type: in vivo; details: dog
Description: as §3
For toxicokinetics, a series of 8 blood samples were collected from the jugular vein from all treated animals on each of Days 1 and 14 of the treatment period at 2, 5, 10, 15, 30, and 60 minutes as well as 3 and 8 hours after treatment.

Dog = assay: Summary of clinical observations in applicant-sponsored dog toxicity studies; assay type: in vivo; details: Dog 1.0 mg/kg (33 mg HED), preliminary data, ongoing study
Text: Based on preliminary data from another ongoing study in dogs, it has been observed that the site of blood sampling in dogs may impact the measured plasma exposure. Samples from the jugular vein may result in higher apparent exposure levels than samples from the cephalic vein, which might be due to the local transmucosal route of administration (also reported in the scientific literature (Illum, 2003; Sohlberg, 2013)). Therefore, dose escalation criteria for the Phase 1 Single Ascending Dose study are based on assessment of clinical criteria, safety factors and exposure. A maximum dose of 14 mg has been designated.

[4] = single intranasal 1, 5, and 10 mg/kg, all dose levels
[5] = dose escalation phase, single intranasal 2-5 mg/kg
[6] = phase 2, MTD once daily 5 days then twice daily Days 6 and 7
[7] = rat, dose levels ≤75 mg/kg/day for 14 days
[8] = intranasal 0.8 mg/kg/day, Day 1, Female
[9] = intranasal 0.8 mg/kg/day, Day 1, Male
[10] = intranasal 0.8 mg/kg/day, Day 14, Female

COc1ccc2[nH]cc(CCN(C)C)c2c1 [BPL-5MEO, 5-methoxy-N,N-dimethyltryptamine]
clinical sign in one animal (male Sprague-Dawley rats; single intranasal 10 mg/kg): twitching | FOB autonomic domain (male Sprague-Dawley rats; [4]): salivation, piloerection, increased respiration, dilated pupils and changes in body temperature | FOB neurological (sensorimotor)/neuromuscular domain (male Sprague-Dawley rats; [4]): transient changes in gait (difficulty in movement) | FOB behavioral domain (male Sprague-Dawley rats; single intranasal 1.5, 3, 10 mg/kg, 15 minutes postdose): transient decreased activity, lying on the cage floor, and decreased rearing | clinical signs in some animals (male Sprague-Dawley rats; single intranasal 3 and 10 mg/kg): Tremors, salivation, and gasping | clinical signs immediately following dosing (male Sprague-Dawley rats; single intranasal, all dose groups): decreased activity, lying on the cage floor, shallow/increased respiration and dilated pupils | food intake (dogs; dose escalation phase, after Dose 1 and Dose 2): Slight decreases in food intake | clinical signs (dogs; [5]): gnawing cage wire, dilated pupils, changes in respiration, incoordination, decreased activity, vocalization, salivation, erect penis (for males) and shaking | mortality and bodyweights (dogs; [5]): no BPL-5MEO-related effects on mortality or bodyweights | duration of convulsion shortly after dosing (dogs; male animal, last escalating dose 3.5 mg/kg/day): 8 min | clinical signs (dogs; [6]): muscle stiffness, gnawing cage wire, dilated pupils, changes in respiration, decreased activity, incoordination, vocalization, salivation, erect penis (for the male) and shaking | mortality and bodyweights (dogs; [6]): no test item-related effects on mortality or bodyweights | accumulation [1]: did not accumulate | adverse effect on reproductive tissues (Sprague Dawley rats; 14-day pivotal GLP intranasal toxicity studies in rats and dogs): no evidence of an adverse effect on reproductive tissues | Thymus Mean Absolute Weight (Sprague Dawley rats; male rats, Group 2 (5 mg/kg/day), compared to the control value): −4 percentage | respiratory rate (Sprague Dawley rats; rat, 20 minutes postdose, vs pretreatment or control): decreases in respiratory rates | body temperature (Sprague Dawley rats; rat, Day 14, 15 and 30 minutes postdose, all treated male animals): slight body temperature increases | clinical signs (Sprague Dawley rats; rat, Group 2 (Low Dose) 5 mg/kg/day): incoordination, shaking, salivation, decreased activity, lying on cage floor and sensitive to touch | clinical signs (Sprague Dawley rats; rat, Group 3 (Mid Dose) 20 mg/kg/day): incoordination, shaking (or tremor), increased or shallow respiration, mydriasis, salivation, decreased activity, partially closed eyes, lying on cage floor and sensitive to touch | clinical signs (Sprague Dawley rats; rat, Group 4 (High Dose) 75 mg/kg/day): incoordination, shaking (or tremor), increased or shallow respiration, mydriasis, salivation, decreased activity, partially closed eyes, lying on cage floor and sensitive to touch | macroscopic findings (Sprague Dawley rats; rat, Main and Recovery groups): no macroscopic findings | microscopic findings in respiratory, transitional and/or olfactory epithelium of nasal cavities 1-4 (Sprague Dawley rats; rat, Main group): minimal to mild changes | microscopic changes in nasal cavities (Sprague Dawley rats; rat, Main group, 20 mg/kg/day (Group 3)): Minimal degeneration of the respiratory epithelium of the nasal cavities 1 and 2 | microscopic changes in nasal cavities (Sprague Dawley rats; rat, Main group, 5 and/or 20 mg/kg/day (Group 2 and 3)): Minimal degeneration of the olfactory epithelium of the nasal cavities 2 and 3 | reversibility of nasal microscopic changes (Sprague Dawley rats; rat, Recovery group, 14-day recovery period): incomplete but progressive ongoing reversal of epithelial degeneration | body weight gain (Sprague Dawley rats; rat, both sexes, Days 1 to 14): Slight, generally dose-dependent body weight gain suppression | activated partial thromboplastin times (APTT) (Sprague Dawley rats; rat, both sexes, mid (20 mg/kg/day) and high (75 mg/kg/day) dose groups, vs control): increased | clinical chemistry and urinalysis (Sprague Dawley rats; [7]): no changes in clinical chemistry and urinalysis parameters | food consumption (Sprague Dawley rats; [7]): no changes in food consumption | ocular effect (Sprague Dawley rats; [7]): no adverse ocular effect | mortality (Sprague Dawley rats; rat, intranasal 5, 20, 75 mg/kg/day, 14 days): No mortality | tolerability (Sprague Dawley rats; rat, intranasal, dose levels ≤75 mg/kg/day for 14 consecutive days): tolerated | platelet, neutrophil, monocyte and basophil counts (Sprague Dawley rats; rat, mid and high dose groups, both sexes, vs control): slightly increased | t1/2 [2]: 8.58 min | body temperature (Beagle dogs; Day 14, high dose group, both sexes, 15 and 30 minutes postdose): Transient body temperature increases | Triglyceride, Mean ± SD Day 14 (Beagle dogs; Group 2, 0.4 mg/kg/day, Females): 0.46 ± 0.61 mmol/L | Triglyceride, Mean ± SD Day 14 (Beagle dogs; Group 2, 0.4 mg/kg/day, Males): 0.40 ± 0.11 mmol/L | Triglyceride, Mean ± SD Day 14 (Beagle dogs; Group 3, 0.8 mg/kg/day, Females): 0.47 ± 0.22 mmol/L | Triglyceride, Mean ± SD Day 14 (Beagle dogs; Group 3, 0.8 mg/kg/day, Males): 0.44 ± 0.07 mmol/L | animals with increased triglyceride level (Beagle dogs; Group 3 female): 1/3 | animals with increased triglyceride level (Beagle dogs; Group 4 females): 4/5 | animals with increased triglyceride level (Beagle dogs; Group 4 male): 1/5 | additional clinical observations (Beagle dogs; Mid and High dose groups): eye discharge and shaking | time to resolution of clinical signs (Beagle dogs; all treated groups): ≤ 90 min | transient clinical observation (Beagle dogs; all treated groups): incoordination, vocalization, mydriasis, decreased or increased activity, increased respiration, gnawing cage wire, excessive licking of nose or lips and circling | additional clinical observation (Beagle dogs; high dose male animals): Erect penis | AUC(0-inf) ([3]; Beagle, plasma, inhaled or intranasal, 1.5 mg/kg/day, combined for both sexes, read-out: AUCINF_obs corresponding to NOAEL): 220 ng·h/mL | Cmax ([3]; intranasal 0.4 mg/kg/day, Day 1, Male): 343 ng/mL | t1/2 ([3]; intranasal 0.4 mg/kg/day, Day 14, Female): 42.4 min | Tmax ([3]; intranasal 0.4 mg/kg/day, Day 14, Male): 6.66 min | AUCINF—obs [3, 8]: 265 ng·h/mL | t1/2 [3, 8]: 43.8 min | AUCINF—obs [3, 9]: 160 ng·h/mL | Tmax [3, 9]: 6.66 min | AUC0-Tlast [3, 10]: 248 ng·h/mL | Cmax [3, 10]: 244 ng/mL | Tmax ([3]; intranasal 0.8 mg/kg/day, Day 14, Male): 6.66 min | Tmax ([3]; intranasal 2.5 & […], Day 1, Female): 6.66 min | t1/2 ([3]; intranasal 2.5 & […], Day 14, Male): 49 min | Clinical observation (Dog): Slight tremor
